Measurements reported in patent publication US6900041B2, “Methods and compositions for the treatment of inflammatory diseases” (Reddy US Therapeutics Inc., priority 2000, dated 2005).

Columns and labels:
Assay type in all cases: cell-based, human
[1] = tested on: GSK-3β expression; test: GSK-3β immunoblotting (Western blot, densitometry) of endothelial cells; details: 24 hours
Method: GSK-3β-immunoblotting analyses of endothelial cells treated with different inflammatory and non-inflammatory agents were performed.
Cells were treated as taught in Examples 1 and 2. Endothelial cells were incubated with an agent for 24 hours. […] After incubation, the cells were washed, lysed and separated by polyacrylamide gel electrophoresis. Western blotting was performed, using antibody directed to GSK-3β, and detected.

[2] = tested on: GSK-3β expression; test: RT-PCR of GSK-3β in endothelial cells; details: endothelial cells (HMVEC); TNFα 10 ng/ml or AGE 100 μg/ml; 8 hours; vs control
Method: HMVEC cells were treated with control medium or medium containing 10 ng/ml TNFα or 100 μg/ml glycated-HSA for 24 hrs. All treatments and controls were carried out in serum free media containing 0.2% albumin. Cells were collected into cold PBS using a cell scraper and used for RNA isolation.
Endothelial cells were incubated in media alone (control) or media containing TNFα (10 ng/ml) or AGE (100 μg/ml) for 8 hours. Poly (A) RNA was isolated and used as template for RT-PCR. Poly (A)+RNA was isolated from confluent cultures of HMVEC incubated under various conditions, using the Micropoly (A) pure kit (Ambion). RT-PCR with Superscript First-strand synthesis system (BRL) was performed according to the manufacture's instructions. […] 2: [sequence], representing a 406 bp region (from 519-925) in the coding sequence of GSK-3β (GSK-3β GenBank Accession No. L33801). […] PCR was carried out by using an initial denaturing step at 96° C. for 5 min, then cycle 35-times (or 25 times for quantitative RT-PCR) between 96° C. for 1 min, 58° C. for 45 sec, and 72° C. for 2 min. […] Samples (10 μl) were analyzed on a 1% agarose gel and stained with ethidium bromide and visualized by UV Tran illuminator (UIVP).

[3] = tested on: IL-6 production by endothelial cells; test: IL-6 ELISA of endothelial cell media
Method: Human aortic (HAEC) and microvascular (HMVEC) endothelial cells (Clonetics) were cultured and subcultured according to manufacturer in growth medium (Clonetics): basal medium containing hEGF, hydrocortisone, VEGF, HFGF-B (w/heparin), long R3-IGF-1, Ascorbic acid, gentamicin/amphotericin and 5% FBS. These cell were allowed to reach >90% confluency before being subjected to experimental treatments. […] Tumor necrosis factor α was from R&D Systems. Cells were incubated with 20 mM lithium (as LiCl or with 20 mM KCl as control) in the presence or absence of TNFα (10 ng/ml). Insulin (1 nM) was also used to inhibit GSK-3β.
HMVEC cells were treated with control medium or medium containing 10 ng/ml TNFα or 100 μg/ml glycated-HSA for 24 hrs. All treatments and controls were carried out in serum free media containing 0.2% albumin. […]
IL-6 ELISA was carried out using human IL-6 DuoSet ELISA development kit as described by manufacturer (R&D Systems). […] Color development was read at 450 nm in a microplate reader. […]
Following 24 h transfection, the cells were incubated for 24 h with medium alone or medium containing 300 μg/ml glycated albumin (AGE) or medium containing 10 ng/ml TNF-α. IL-6 and MCP-1 were determined by ELISA, as shown in Examples 2 and 3.
Empty vectors or vectors carrying alkaline phosphatase were used as controls. […] IL-6 and MCP-1 were determined by ELISA as described in Examples 2 and 3.

[4] = tested on: VCAM-1 expression; test: VCAM-1 ELISA on endothelial cell monolayers; details: 24 h
Method: HMVEC cells were treated with control medium or medium containing 10 ng/ml TNFα or 100 μg/ml glycated-HSA for 24 hrs. All treatments and controls were carried out in serum free media containing 0.2% albumin. Following treatment, cell media were collected and used for IL-6, MCP-1 ELISA and cells were used for VCAM-1 ELISA which was conducted in situ without lysis. Inhibition of GSK-3β altered inflammation-related adhesion molecule expression. VCAM-1 is an endothelial adhesion molecule that facilitates monocyte infiltration into the blood vessel (3). Cells were treated as described in Example 2. Endothelial cells were exposed to KCl (10 mM, as a control) or with TNFα (10 ng/ml); LiCl (10 mM) alone and with TNFα (10 ng/ml), insulin (1 nM) alone or with TNFα (10 ng/ml). Following incubation for 24 h, […] assayed for VCAM-1 by ELISA. VCAM-1 ELISA was performed on monolayers of endothelial cells in 96 well plates. Wells were incubated with 100 μl of 1:1000 dilution of primary antibody (polyclonal goat anti-human VCAM-1 from R&D Systems) in medium containing 10% FBS. A rabbit anti-goat IgG-HRP was used as secondary antibody and ELISA was performed as described for MCP-1 above.

[5] = tested on: GSK-3β promoter; test: GSK-3β promoter-luciferase reporter assay in transfected BAEC; details: TNFα 10 ng/ml, 24-48 hours
Method: pGL3-GSK3B−1478/+534 was transfected into bovine aortic endothelial cells (BAEC) by electroporation. Transfected cells were aliquoted into 96 well plates and allowed to recover in full media for 16-24 hours. […] Luciferase activity was measured in cell lysates using Bright-Glo Luciferase Assay System (Promega).

[6] = tested on: MCP-1 production by endothelial cells; test: MCP-1 ELISA of endothelial cell media; details: 24 h
Method: MCP-1 ELISA was carried out using Quantikine Human MCP-1 kit as described by manufacturer (R&D Systems). Mouse anti-human MCP-1 was used as the capture antibody and HRP-conjugated goat anti-human MCP-1 was used as the detection antibody. Culture media were incubated with capture antibody (in 96 well) for 2 h at room temperature. Wells were washed three times with wash buffer (0.05% Tween-20 in PBS followed by incubation with detection antibody for 2 h at room temperature. Color development was read at 450 nm in a microplate reader.
Endothelial cells, as grown in Example 1 and 2, were transfected with oligonucleotides using Cytofectin transfection reagent. […] IL-6 and MCP-1 were determined by ELISA, as shown in Examples 2 and 3.
Inhibition of GSK-3β led to […] inflammatory gene expression in endothelial cells. Overexpression of GSK-3β protein inhibited inducible inflammatory gene expression in endothelial cells. Full length GSK-3β cDNA was cloned into a retroviral vector pLIB. Empty vectors or vectors carrying alkaline phosphatase were used as controls. Retroviral particles carrying different genes were generated in HEK-293 cells. […] IL-6 and MCP-1 were determined by ELISA as described in Examples 2 and 3.

With VEGF the “induction of GSK-3β expression” value ([1]; VEGF 10 ng/ml) was roughly 2 fold.
In the case of TNFα, the “intensity of the 406 bp GSK-3β RT-PCR band” value [2] is reported as “decreased”, the “increase in IL-6 secretion” value ([3]; TNFα 10 ng/ml alone, 24 h) is reported as “greater than 10 fold” and the “induction of IL-6 expression” value ([3]; endothelial cells transduced with control vector) is reported as 10 fold. For the same substance, the “VCAM-1 expression, % of basal levels” value ([4]; TNFα 10 ng/ml alone) was 340%, the “decrease of GSK-3β expression” value ([1]; TNF-α 10 ng/ml, AGE 300 μg/ml, oxidized LDL 100 μg/ml, IL-1β 1 ng/ml) was 70% and the “decrease of GSK-3β promoter activity (luciferase)” value [5] was “greater than 50%”.
With insulin: known inhibitor of GSK-3β the “increase of MCP-1” value ([6]; added together with AGE 300 μg/ml, LiCl 10 mM or insulin 1 nM) was “approximately 2.8 fold”, the “increase of MCP-1 secretion” value ([6]; agent alone (LiCl 10 mM, insulin 1 nM), vs 10 mM KCl (about 400 pg/ml)) was “about 50%” and the “effect on VCAM expression” value ([4]; agent alone (LiCl 10 mM, insulin 1 nM)) was “did not significantly affect”. The “effect on TNFα-induced VCAM-1 expression” value ([4]; insulin 1 nM together with TNFα 10 ng/ml, vs TNFα alone) was “almost doubled the effect of TNFα alone”.
